Measurements published in patent US5290757A (priority 1993, dated 1994).
Where a SMILES comes first, the peptide text is derived from it.

Key:
[1] = tested on: perennial ryegrass (Lolium perenne) seeds; experiment: Petri dish root-inhibition bioassay on perennial ryegrass seeds; format: in vivo; conditions: for Root Length of Perennial Ryegrass Seedlings Expressed as a Percentage of the Control: average of 2 trials; for relative effectiveness among the five dipeptides: perennial ryegrass root inhibition
Protocol: Bioactive fractions of the eluate were identified with bioassays, then pooled and subjected to further purification steps. […] The dishes were sealed with parafilm and placed in a controlled environmental chamber. The light intensity in the growth chamber was 70 μmol m^-2 s^-1 at 25° C./15° C. day/night temperature with a 16 hr photoperiod. One ml of a given eluate fraction was applied to the filter paper in each petri dish. The study was conducted with seven replications for each eluate fraction. […] Louis, Mo. The fifth, Gln-Gln, was obtained from Bachem Bioscience Inc. The activity of each synthetically derived peptide was tested in seven replications on perennial ryegrass using the same bioassay technique described in Example 4 in the presence of increasing amounts of the dipeptides mixed with distilled water (Table V).

[2] = tested on: creeping bentgrass (Agrostis palustris); experiment: Soil pot study of dipeptide bioactivity on creeping bentgrass; format: in vivo; conditions: for Mean root length of creeping bentgrass seedlings / Percentage of creeping bentgrass plants surviving: 21 days after treatment
Protocol: In a study designed to verify the bioactivity of the dipeptides on soil, Ala-Gln and Gly-Ala were applied to the surface of 56.3 cm^2 plastic pots filled with a Nicollet (fine, loamy, […], Aquic Hapludol soil. The two dipeptides were applied at 0 to 3552 mg/dm^2. […] The test specie was creeping bentgrass (Agrostis palustris).

[3] = 8 μg/cm^2 dipeptide on filter paper
[4] = 13 μg/cm^2 dipeptide on filter paper
[5] = 21 μg/cm^2 dipeptide on filter paper
[6] = 26 μg/cm^2 dipeptide on filter paper
[7] = 31 μg/cm^2 dipeptide on filter paper
[8] = 39 μg/cm^2 dipeptide on filter paper
[9] = 52 μg/cm^2 dipeptide on filter paper
[10] = concentrations of 1.8 g/dm^2 and above
[11] = much lower concentrations than 1.8 g/dm^2

## C[C@H](N)C(=O)N[C@@H](CC(N)=O)C(=O)O [Ala-Asn, alaninylasparagine] (H-Ala-Asn-OH)
[1]; [3]
  Root Length of Perennial Ryegrass Seedlings Expressed as a Percentage of the Control: 101%
[1]; [4]
  Root Length of Perennial Ryegrass Seedlings Expressed as a Percentage of the Control: 85%
[1]; [5]
  Root Length of Perennial Ryegrass Seedlings Expressed as a Percentage of the Control: 63%
[1]; [6]
  Root Length of Perennial Ryegrass Seedlings Expressed as a Percentage of the Control: 29%
[1]; [7]
  Root Length of Perennial Ryegrass Seedlings Expressed as a Percentage of the Control: 2%
[1]; [8]
  Root Length of Perennial Ryegrass Seedlings Expressed as a Percentage of the Control: 0%
[1]; [9]
  Root Length of Perennial Ryegrass Seedlings Expressed as a Percentage of the Control: 0%
[1]
  relative effectiveness among the five dipeptides: most effective

## NC(=O)CC[C@H](NC(=O)[C@@H](N)CCC(N)=O)C(=O)O [Gln-Gln, glutaminyl-glutamine] (H-Gln-Gln-OH)
[1]; [3]
  Root Length of Perennial Ryegrass Seedlings Expressed as a Percentage of the Control: 107%
[1]; [4]
  Root Length of Perennial Ryegrass Seedlings Expressed as a Percentage of the Control: 89%
[1]; [5]
  Root Length of Perennial Ryegrass Seedlings Expressed as a Percentage of the Control: 82%
[1]; [6]
  Root Length of Perennial Ryegrass Seedlings Expressed as a Percentage of the Control: 63%
[1]; [7]
  Root Length of Perennial Ryegrass Seedlings Expressed as a Percentage of the Control: 12%
[1]; [8]
  Root Length of Perennial Ryegrass Seedlings Expressed as a Percentage of the Control: 3%
[1]; [9]
  Root Length of Perennial Ryegrass Seedlings Expressed as a Percentage of the Control: 0%

## C[C@H](N)C(=O)N[C@@H](CCC(N)=O)C(=O)O [Ala-Gln, alaninyl-glutamine] (H-Ala-Gln-OH)
[2]; 89 mg/dm^2 on soil surface
  Mean root length of creeping bentgrass seedlings: 20 mm
  Percentage of creeping bentgrass plants surviving: 100%
[2]; 178 mg/dm^2 on soil surface
  Mean root length of creeping bentgrass seedlings: 15 mm
  Percentage of creeping bentgrass plants surviving: 40%
[2]; 355 mg/dm^2 on soil surface
  Mean root length of creeping bentgrass seedlings: 2 mm
  Percentage of creeping bentgrass plants surviving: 30%
[2]; 710 mg/dm^2 on soil surface
  Mean root length of creeping bentgrass seedlings: 0 mm
  Percentage of creeping bentgrass plants surviving: 25%
[2]; 1066 mg/dm^2 on soil surface
  Mean root length of creeping bentgrass seedlings: 0 mm
  Percentage of creeping bentgrass plants surviving: 5%
[2]; 1776 mg/dm^2 on soil surface
  Mean root length of creeping bentgrass seedlings: 0 mm
  Percentage of creeping bentgrass plants surviving: 0%
[2]; 3552 mg/dm^2 on soil surface
  Mean root length of creeping bentgrass seedlings: 0 mm
  Percentage of creeping bentgrass plants surviving: 0%
[2]; [10]
  inhibition of emergence and establishment of creeping bentgrass: completely inhibit
[2]; [11]
  inhibition of emergence and establishment of creeping bentgrass: partially effective
[1]; [3]
  Root Length of Perennial Ryegrass Seedlings Expressed as a Percentage of the Control: 83%
[1]; [4]
  Root Length of Perennial Ryegrass Seedlings Expressed as a Percentage of the Control: 70%
[1]; [5]
  Root Length of Perennial Ryegrass Seedlings Expressed as a Percentage of the Control: 49%
[1]; [6]
  Root Length of Perennial Ryegrass Seedlings Expressed as a Percentage of the Control: 41%
[1]; [7]
  Root Length of Perennial Ryegrass Seedlings Expressed as a Percentage of the Control: 4%
[1]; [8]
  Root Length of Perennial Ryegrass Seedlings Expressed as a Percentage of the Control: 0%
[1]; [9]
  Root Length of Perennial Ryegrass Seedlings Expressed as a Percentage of the Control: 0%

## C[C@H](NC(=O)CN)C(=O)O [Gly-Ala, glycinyl-alanine] (H-Gly-Ala-OH)
[2]; 89 mg/dm^2 on soil surface
  Mean root length of creeping bentgrass seedlings: 20 mm
  Percentage of creeping bentgrass plants surviving: 105%
[2]; 178 mg/dm^2 on soil surface
  Mean root length of creeping bentgrass seedlings: 15 mm
  Percentage of creeping bentgrass plants surviving: 40%
[2]; 355 mg/dm^2 on soil surface
  Mean root length of creeping bentgrass seedlings: 5 mm
  Percentage of creeping bentgrass plants surviving: 30%
[2]; 710 mg/dm^2 on soil surface
  Mean root length of creeping bentgrass seedlings: 2 mm
  Percentage of creeping bentgrass plants surviving: 25%
[2]; 1066 mg/dm^2 on soil surface
  Mean root length of creeping bentgrass seedlings: 2 mm
  Percentage of creeping bentgrass plants surviving: 25%
[2]; 1776 mg/dm^2 on soil surface
  Mean root length of creeping bentgrass seedlings: 0 mm
  Percentage of creeping bentgrass plants surviving: 0%
[2]; 3552 mg/dm^2 on soil surface
  Mean root length of creeping bentgrass seedlings: 0 mm
  Percentage of creeping bentgrass plants surviving: 0%
[2]; [10]
  inhibition of emergence and establishment of creeping bentgrass: completely inhibit
[2]; [11]
  inhibition of emergence and establishment of creeping bentgrass: partially effective
[1]; [3]
  Root Length of Perennial Ryegrass Seedlings Expressed as a Percentage of the Control: 95%
[1]; [4]
  Root Length of Perennial Ryegrass Seedlings Expressed as a Percentage of the Control: 68%
[1]; [5]
  Root Length of Perennial Ryegrass Seedlings Expressed as a Percentage of the Control: 29%
[1]; [6]
  Root Length of Perennial Ryegrass Seedlings Expressed as a Percentage of the Control: 16%
[1]; [7]
  Root Length of Perennial Ryegrass Seedlings Expressed as a Percentage of the Control: 9%
[1]; [8]
  Root Length of Perennial Ryegrass Seedlings Expressed as a Percentage of the Control: 2%
[1]; [9]
  Root Length of Perennial Ryegrass Seedlings Expressed as a Percentage of the Control: 0%

## C[C@H](N)C(=O)N[C@@H](C)C(=O)O [Ala-Ala, alaninyl-alanine] (H-Ala-Ala-OH)
[1]; [3]
  Root Length of Perennial Ryegrass Seedlings Expressed as a Percentage of the Control: 74%
[1]; [4]
  Root Length of Perennial Ryegrass Seedlings Expressed as a Percentage of the Control: 44%
[1]; [5]
  Root Length of Perennial Ryegrass Seedlings Expressed as a Percentage of the Control: 27%
[1]; [6]
  Root Length of Perennial Ryegrass Seedlings Expressed as a Percentage of the Control: 5%
[1]; [7]
  Root Length of Perennial Ryegrass Seedlings Expressed as a Percentage of the Control: 1%
[1]; [8]
  Root Length of Perennial Ryegrass Seedlings Expressed as a Percentage of the Control: 2%
[1]; [9]
  Root Length of Perennial Ryegrass Seedlings Expressed as a Percentage of the Control: 0%
[1]
  relative effectiveness among the five dipeptides: most effective
